Data reported in PubChem BioAssay AID256 (DTP/NCI, 2004).
Where “and” joins values, the source holds several entries; their conditions need not be identical. Identical values can stand only once. Inconclusive results and toxic doses are left out.

Tested on: CD2F1 mice, L1210 leukemia ip, survival T/C
Assay: NCI In Vivo Anticancer Drug Screen. Data for tumor model L1210 Leukemia (intraperitoneal) in CD2F1 (CDF1) mice
Conditions: endpoint: mean survival time, higher = longer survival
Method in brief: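 Antitumor effect is scored in animals hosting a serially transplanted tumor. Values compare compound-dosed animals against vehicle-only controls as a simple quotient.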

[1] = dose: 12.5 mg/kg/injection, schedule: Q04DX003 (ip), vehicle: saline
[2] = dose: 25.0 mg/kg/injection, schedule: Q04DX003 (ip), vehicle: saline
[3] = dose: 50.0 mg/kg/injection, schedule: Q04DX003 (ip), vehicle: saline
[4] = dose: 100.0 mg/kg/injection, schedule: Q01DX009 (ip), vehicle: Klucel (hydroxypropylcellulose) (HPC)
[5] = dose: 200.0 mg/kg/injection, schedule: Q01DX009 (ip), vehicle: Klucel (hydroxypropylcellulose) (HPC)
[6] = dose: 400.0 mg/kg/injection, schedule: Q01DX009 (ip), vehicle: Klucel (hydroxypropylcellulose) (HPC)
[7] = dose: 100.0 mg/kg/injection, schedule: Q04DX003 (ip), vehicle: saline
[8] = dose: 100.0 mg/kg/injection, schedule: Q04DX003 (ip), vehicle: saline with Tween-80
[9] = dose: 200.0 mg/kg/injection, schedule: Q04DX003 (ip), vehicle: saline with Tween-80
[10] = dose: 400.0 mg/kg/injection, schedule: Q04DX003 (ip), vehicle: saline with Tween-80
[11] = dose: 400.0 mg/kg/injection, schedule: Q01DX009 (ip), vehicle: saline with Tween-80
[12] = dose: 100.0 mg/kg/injection, schedule: Q01DX009 (ip), vehicle: saline with Tween-80
[13] = dose: 200.0 mg/kg/injection, schedule: Q01DX009 (ip), vehicle: saline with Tween-80
[14] = dose: 100.0 mg/kg/injection, schedule: Q01DX001 (ip), vehicle: saline with Tween-80
[15] = dose: 200.0 mg/kg/injection, schedule: Q01DX001 (ip), vehicle: saline with Tween-80
[16] = dose: 400.0 mg/kg/injection, schedule: Q01DX001 (ip), vehicle: saline with Tween-80

## O=C(O)C(O)C(O)C(O)CO.[Zn+2] (stereo not drawn)
dose: 6.25 mg/kg/injection, schedule: Q01DX005 (ip), vehicle: saline with Tween-80
  T/C: 108 % of control
dose: 12.5 mg/kg/injection, schedule: Q01DX005 (ip), vehicle: saline with Tween-80
  T/C: 108 % of control
[1]
  T/C: 95 % of control
dose: 25.0 mg/kg/injection, schedule: Q01DX005 (ip), vehicle: saline with Tween-80
  T/C: 103 % of control
[2]
  T/C: 95 % of control
[3]
  T/C: 101 % of control

## N#[N+]c1cnc([O-])[nH]c1=O
dose: 0.5 mg/kg/injection, schedule: Q07DX Z (ip), vehicle: saline
  T/C: 106 % of control
dose: 1.0 mg/kg/injection, schedule: Q07DX Z (ip), vehicle: saline
  T/C: 112 % of control
dose: 2.0 mg/kg/injection, schedule: Q03DX Z (ip), vehicle: saline
  T/C: 112 % of control
dose: 2.0 mg/kg/injection, schedule: Q07DX Z (ip), vehicle: saline
  T/C: 118 % of control
dose: 4.0 mg/kg/injection, schedule: Q07DX Z (ip), vehicle: saline
  T/C: 116 % of control
dose: 8.0 mg/kg/injection, schedule: Q01DX001 (ip), vehicle: saline
  T/C: 112 % of control
dose: 16.0 mg/kg/injection, schedule: Q01DX001 (ip), vehicle: saline
  T/C: 112 % of control
dose: 32.0 mg/kg/injection, schedule: Q01DX001 (ip), vehicle: saline
  T/C: 115 % of control and 117 % of control

## O=C(O)C1CCC(NCc2ccccc2)CC1 (stereo not drawn)
[4]
  T/C: 100 % of control
[5]
  T/C: 100 % of control
[6]
  T/C: 111 % of control

## CCOC(=O)/C=C\C(=O)O.[Mn]
[2]
  T/C: 102 % of control
[3]
  T/C: 104 % of control
dose: 100.0 mg/kg/injection, schedule: Q04DX002 (ip), vehicle: saline
  T/C: 98 % of control
[7]
  T/C: 112 % of control
dose: 200.0 mg/kg/injection, schedule: Q01DX001 (ip), vehicle: saline
  T/C: 98 % of control
dose: 200.0 mg/kg/injection, schedule: Q04DX002 (ip), vehicle: saline
  T/C: 97 % of control
dose: 300.0 mg/kg/injection, schedule: Q04DX002 (ip), vehicle: saline
  T/C: 116 % of control

## Fc1ccc(N2CCNCC2)cc1
[1]
  T/C: 101 % of control
[2]
  T/C: 103 % of control
[3]
  T/C: 92 % of control

## C=CC1CN(CCc2cc3ccccc3[nH]2)CCC1CC(=O)OCC (stereo not drawn)
[8]
  T/C: 97 % of control
[9]
  T/C: 101 % of control
[10]
  T/C: 94 % of control

## c1ccc2c(c1)ccc1c2c[n+](CCCCCCCC[n+]2cc3c4ccccc4ccc3c3ccccc32)c2ccccc12
dose: 1.56 mg/kg/injection, schedule: Q04DX003 (ip), vehicle: distilled water + Tween-80
  T/C: 114 % of control
dose: 3.13 mg/kg/injection, schedule: Q04DX003 (ip), vehicle: distilled water + Tween-80
  T/C: 124 % of control

## O=c1[nH]c(=O)n([C@H]2CCCO2)cc1F
dose: 25.0 mg/kg/injection, schedule: Q01DX005 (ip), vehicle: other
  T/C: 93 % of control
dose: 25.0 mg/kg/injection, schedule: Q01DX009 (ip), vehicle: saline with Tween-80
  T/C: 97 % of control
[2]
  T/C: 90 % of control
dose: 50.0 mg/kg/injection, schedule: Q01DX005 (ip), vehicle: other
  T/C: 93 % of control
dose: 50.0 mg/kg/injection, schedule: Q01DX009 (ip), vehicle: saline with Tween-80
  T/C: 101 % of control
[3]
  T/C: 100 % of control
dose: 100.0 mg/kg/injection, schedule: Q01DX005 (ip), vehicle: other
  T/C: 114 % of control
[7]
  T/C: 105 % of control
dose: 112.5 mg/kg/injection, schedule: Q04DX003 (ip), vehicle: saline with Tween-80
  T/C: 106 % of control
dose: 112.5 mg/kg/injection, schedule: Q04DX003 (iv), vehicle: saline with Tween-80
  T/C: 104 % of control
dose: 225.0 mg/kg/injection, schedule: Q04DX003 (ip), vehicle: saline with Tween-80
  T/C: 116 % of control
dose: 225.0 mg/kg/injection, schedule: Q04DX003 (iv), vehicle: saline with Tween-80
  T/C: 113 % of control
dose: 400.0 mg/kg/injection, schedule: Q01DX005 (ip), vehicle: other
  T/C: 95 % of control
[11]
  T/C: 104 % of control
dose: 400.0 mg/kg/injection, schedule: Q04DX003 (ip), vehicle: saline
  T/C: 158 % of control
dose: 450.0 mg/kg/injection, schedule: Q04DX003 (ip), vehicle: saline with Tween-80
  T/C: 153 % of control

## O=C(CNC(=O)NCc1ccco1)NNC(=O)Nc1ccc(Cl)c([N+](=O)[O-])c1
[12]
  T/C: 94 % of control
[13]
  T/C: 87 % of control
[11]
  T/C: 91 % of control

## N#CCCOP(=O)(N1CC1)N1CC1
dose: 3.9 mg/kg/injection, schedule: Q01DX001 (ip), vehicle: Klucel (hydroxypropylcellulose) (HPC)
  T/C: 100 % of control
dose: 4.0 mg/kg/injection, schedule: Q01DX009 (ip), vehicle: water
  T/C: 104 % of control
dose: 7.8 mg/kg/injection, schedule: Q01DX001 (ip), vehicle: Klucel (hydroxypropylcellulose) (HPC)
  T/C: 100 % of control
dose: 8.0 mg/kg/injection, schedule: Q01DX009 (ip), vehicle: water
  T/C: 114 % of control
dose: 15.6 mg/kg/injection, schedule: Q01DX001 (ip), vehicle: Klucel (hydroxypropylcellulose) (HPC)
  T/C: 109 % of control
dose: 31.2 mg/kg/injection, schedule: Q01DX001 (ip), vehicle: Klucel (hydroxypropylcellulose) (HPC)
  T/C: 122 % of control
dose: 62.5 mg/kg/injection, schedule: Q01DX001 (ip), vehicle: Klucel (hydroxypropylcellulose) (HPC)
  T/C: 121 % of control
dose: 64.0 mg/kg/injection, schedule: Q01DX009 (ip), vehicle: water
  T/C: 90 % of control

## Nc1ncnc(N)c1NC(=O)c1ccc(OCCOc2ccccc2)c(Cl)c1
[9]
  T/C: 88 % of control

## O=C1c2ccccc2C(=O)N1CCCCCBr
[12]
  T/C: 96 % of control
[8]
  T/C: 103 % of control
[13]
  T/C: 96 % of control
[9]
  T/C: 91 % of control
[11]
  T/C: 94 % of control
[10]
  T/C: 100 % of control

## BrC1=C(c2ccccc2)SC(Br)=C(c2ccccc2)S1
[14]
  T/C: 94 % of control
[15]
  T/C: 87 % of control
[16]
  T/C: 91 % of control

## CCOC(=O)COC(CC[P+](c1ccccc1)(c1ccccc1)c1ccccc1)(C(=O)c1ccccc1)c1ccccc1 (stereo not drawn)
dose: 5.0 mg/kg/injection, schedule: Q01DX001 (ip), vehicle: saline with Tween-80
  T/C: 100 % of control
dose: 6.25 mg/kg/injection, schedule: Q01DX001 (ip), vehicle: saline with Tween-80
  T/C: 102 % of control
dose: 12.5 mg/kg/injection, schedule: Q01DX001 (ip), vehicle: saline with Tween-80
  T/C: 97 % of control
dose: 20.0 mg/kg/injection, schedule: Q01DX001 (ip), vehicle: saline with Tween-80
  T/C: 109 % of control
dose: 25.0 mg/kg/injection, schedule: Q01DX001 (ip), vehicle: saline with Tween-80
  T/C: 108 % of control

## O=C(NNC(=O)c1ccccc1Cl)Nc1ccc(F)c(Cl)c1
[12]
  T/C: 91 % of control
[13]
  T/C: 86 % of control
[11]
  T/C: 87 % of control

## CN(C)CCNc1cccc2c1C(=O)c1cccc(NCCN(C)C)c1C2=O
dose: 1.88 mg/kg/injection, schedule: Q01DX009 (ip), vehicle: saline
  T/C: 94 % of control
dose: 3.75 mg/kg/injection, schedule: Q01DX009 (ip), vehicle: saline
  T/C: 96 % of control
dose: 7.5 mg/kg/injection, schedule: Q01DX009 (ip), vehicle: saline
  T/C: 104 % of control
dose: 15.0 mg/kg/injection, schedule: Q01DX009 (ip), vehicle: saline
  T/C: 104 % of control
dose: 30.0 mg/kg/injection, schedule: Q01DX009 (ip), vehicle: saline
  T/C: 104 % of control

## CCC(c1ccc2cc(OC)ccc2c1)C(CC(=O)O)C(=O)OC (stereo not drawn)
[4]
  T/C: 98 % of control
[5]
  T/C: 98 % of control
[6]
  T/C: 100 % of control

## CCOC(=O)C(OC(=O)CC)c1ccccc1 (stereo not drawn)
[12]
  T/C: 96 % of control
[13]
  T/C: 100 % of control
[11]
  T/C: 102 % of control

## COC1OC(CN=[N+]=[N-])C(N=[N+]=[N-])C(OS(C)(=O)=O)C1OS(C)(=O)=O (stereo not drawn)
[12]
  T/C: 95 % of control
[13]
  T/C: 95 % of control
[11]
  T/C: 90 % of control

## CCCN1CCc2cc3c(cc2C1)OCO3
dose: 100.0 mg/kg/injection, schedule: Q01DX001 (ip), vehicle: saline
  T/C: 100 % of control

## CC(C)(SSC(C)(C)C(N)C(=O)O)C(N)C(=O)O (stereo not drawn)
[14]
  T/C: 108 % of control
[12]
  T/C: 94 % of control
[15]
  T/C: 101 % of control
[13]
  T/C: 93 % of control
[16]
  T/C: 109 % of control
[11]
  T/C: 90 % of control
